{
  "source": "patent US20130273656A1",
  "about": "“METHOD TO INCREASE GENE TARGETING FREQUENCY” (Regents of the University of Minnesota, priority 2010, published 2013)",
  "key": {"DNA-PK complex": {"target": "T1, DNA-PK complex (Homo sapiens, UniProt P78527)", "T1 construct": "whole cell extracts were prepared from a portion of the cells and assayed for DNA-PK complex kinase activity; endogenous in cells; host or cells: HCT116 (controls: MO59J, MO59K)", "assay": "DNA-PK complex kinase activity in extracts of treated cells, standard p53 peptide assay", "type": "cell-based", "conditions": "HCT116 cells treated with 10 μM at time 0 and at 4 hr post-infection", "method": "Nuclear extracts were incubated on ice for 15 min with preswollen dsDNA-cellulose (Sigma). Nuclear extract (100 μg) was used with each sample. Following incubation on ice, the samples were washed twice in Z′ 0.05 buffer (25 mM HEPES-KOH, 50 mM KCl, 10 mM MgCl2, 20% glycerol, 0.1% IGEPAL™, 1 mM dithiothreitol). After the washing steps, the samples were centrifuged and the precipitate was resuspended in 100 μl Z′ 0.05 buffer. […] The wild-type peptide can be phosphorylated by DNA-PK at the serine residue, while the mutant peptide is not recognized by DNA-PK. Following incubation, polyacrylamide gel electrophoresis was carried out. The gel was vacuum dried and exposed to X-ray film. The amount of phosphorylated peptide was quantified using a phosphorimager."}, "HCT116 cells": {"system": "HCT116 cells", "assay": "rAAV-mediated gene targeting of the CCR5 locus in HCT116 cells, correct targeting scored by diagnostic PCR of G418-resistant clones", "type": "cell-based, human", "method": "The human colon cancer cell line HCT116 was obtained from the American Type Culture Collection and maintained in McCoy's 5A media (Mediatech Inc.) containing 10% heat inactivated fetal calf serum (Cambrex), 2 mM L-glutamine, 100 U/ml penicillin and […] streptomycin (Invitrogen). The cells were grown at 37° C. in a humidified incubator with 5% CO2. Cell lines derived from correct targeting events were grown either in the presence of 1 mg/ml G418 or 1 μg/mL puromycin.\nThe targeting vectors, Ku70-Neo (Fattah et al., DNA Repair, 2008, 7:762-774) and CCR5-Neo (Fattah et al., PNAS, 2008, 105:8703-8708), were constructed by using the rAAV system as described (Kohli et. al., Nucl. Acids Res., 2004, 32:e3). All virus packaging and infections were performed as described (Kohli et. al., Nucl. Acids Res., 2004, 32:e3).\nGenomic DNA for PCR screening was isolated by using phenol extraction followed by ethanol precipitation. DNA-PKcs- and CCR5-targeting events were identified by PCR using conditions described elsewhere (Ruis et. al., Mol. Cell. Biol., 2008, 28:6182-6195; Kohli et. al., Nucl. Acids Res., 2004, 32:e3). The primers used to screen for DNA-PKcs targeting events were LArmR, […] (SEQ ID NO:5) and PKcs81-83F1, […]. (SEQ ID NO:6) The primers used to screen for CCR5 targeting events were CF, GCACCATGCTTGACCCAG (SEQ ID NO:7) and NR, […] (SEQ ID NO:8). […]"}},
  "note": "“Also recorded” adds a separate entry of the source.",
  "data": [
    {"smiles": "O=c1cc(N2CCOCC2)oc2c(-c3cccc4c3sc3ccccc34)cccc12", "note": "[NU7441, 8-dibenzothiophen-4-yl-2-morpholin-4-yl-chromen-4-one]", "values": [
      {"measurement": "duration of DNA-PK / DNA-PKcs inhibition", "setting": "DNA-PK complex", "result": "a matter of hours; also recorded: several hours"},
      {"measurement": "DNA-PK activity", "setting": "DNA-PK complex; whole cell extracts", "result": "nearly completely ablated"},
      {"measurement": "increase of frequency of gene targeting", "setting": "HCT116 cells; DNA-PKcs kinase inhibition by NU7441, rAAV CCR5 vector, compared to wild-type cells", "result": "~7", "unit": "fold"},
      {"measurement": "correct gene targeting frequency", "setting": "HCT116 cells; HCT116, 10 μM NU7441 at time 0 and again at 4 hr post-infection, rAAV CCR5 vector, 17 of 229 G418-resistant clones", "result": 7.4, "unit": "%"}
    ]}
  ]
}
